Measured values as given in patent US5383848A, “Iontophoretic administration of drugs” (Gensia, Inc., priority 1991, dated 1995).
Several values for one entry are separate records, joined by “and”; a condition that tells them apart may be missing. Equal entries are not always repeated. Entries after “also recorded” stand apart in the source; their conditions may differ.

How the values were obtained:
[1] = Redness/irritation index of topical formulations on human volunteers (Example B); details: for Redness/irritation index, Mean: 7 subjects
Procedure: In these experiments data were collected from seven human volunteers concerning the effects of topical dermal clearance enhancers. […] Observations were recorded at 10, 20, and 30 minute intervals. The following redness/irritation index was used to categorize vasodilation/irritation:
0=no redness, i.e., erythema;
W=Wheal irritation, i.e., edemic core surrounded by an erythemic ring; and
The presence of vasodilation was determined by degree of redness of the skin. Wheal irritation was signified by the presence of an erythemic ring surrounding an upraised pale center. Whitening was denoted by a pale area with no upraising or redness.

elevated heart rate [2] = test: Additional in vivo dog experiments: dermal clearance enhancer pretreatment then arbutamine TDI (Example C); set-up: species or system labrador dogs
Procedure: Additional experiments were performed to study the effect of certain compositions on the offset time and dermal clearance in dogs.
In these experiments, the formulation to be tested was applied either topically or by transdermal iontophoresis (TDI) as described below.
Six labrador dogs (20 to 30 kg) were trained to lie quietly on a table. Before each experiment, three ECG electrodes (one lead) were applied on shaved areas of the back (near the front legs) to obtain the heart rate. The outer hind leg area (either right or left) was shaved prior to each experiment, with care taken not to cut or visibly damage the skin. The area was cleaned with soap and water and the skin was then […] using an alcohol swab followed by skin preparation with 3M One-Step-Prep™ tape.
Each vasodilator that was delivered by TDI used a 1.8 cm^2 electrode (Graphic Controls, Buffalo, N.Y.) containing the vasodilator in a gel at the concentrations listed in experimental methods section. In all experiments, an indifferent electrode containing a phosphate-buffered-saline gel was applied to the skin in conjunction with the electrode containing the vasodilator. Each vasodilator tested was applied for 10 minutes using a current of 0.6 mA/cm^2. During this time the heart rate was continuously recorded (at 5 second intervals) with the ESA Research System. The delivery electrodes were then removed, and any excess gel adhering to the skin was gently removed using a tissue.
Each topically applied vasodilator was applied to the skin in a volume of approximately 0.25 ml. The agent was allowed to absorb into the skin, during which time the heart rate was continuously recorded for 10 minutes using the ESA Research System.
To test if heat alone would produce sufficient vasodilation, a 60° C. hot pack was applied to the skin 10 minutes prior to drug delivery, during which time the heat rate was continuously recorded by the ESA System. Once drug delivery electrodes were applied, the heat pack was reheated and placed on top of them for the duration of the study.
The purpose of this treatment was to produce an elevated heart rate response of at least 40 beats-per-minute above baseline lasting for at least 30 minutes.
^1/ The dose (ITCA) was calculated by multiplying the applied current density (mA/cm^2) by the duration of delivery (minutes) and the drug concentration (%) and the area of the electrode (cm^2). […] The units of ITCA are mA.minutes.
The important variables for this analysis are:
1) delay between time when drug administration was stopped and start of decline in heart rate;
2) the time (minutes) to reach successive percent levels (i.e. 10, 20, 30, 40, and 50% decline) from the point of maximum change in heart rate^2.
3) the half-life (minutes) of the heart rate decline obtained from an exponential fit of the offset slope.
A combination of over-the-counter (OTC) and proprietary formulations were selected for comparison. […] Two dogs received each treatment at least one time.
The six dogs are identified in the table as BA, BB, BO, MI, PO and SA, followed by the experimental identification number. These dogs received control (no pretreatment) and five DCE pretreatment regimens.

elevated heart rate [3] = test: In vivo dog experiments: heart rate offset after iontophoretic ESA drug with pretreatment (Example A); set-up: species or system labrador dogs; details: for Offset Slope Component (0-5) min: 0-5 min after heart rate begins to decline; for Offset Slope Component (5-10) min: 5-10 min after decline begins; for Offset Slope Component (10-30) min: 10-30 min after decline begins; for Change in Heart Rate (peak minus baseline) / Peak Heart Rate: Table II; for Onset Slope: baseline at onset time to peak heart rate; for Offset time: drug delivery stopped until within 20 bpm of baseline; for Offset Slope: drug shut-off to 20 bpm above baseline; for Delay: drug shut-off to start of heart rate decline; for t 1/2 of elevated heart rate decay: exponential fit; for Onset time: start of delivery to start of increase in heart rate; for Time Start Decline: time when elevated heart rate began to decline
[4] = Table VII, single dog run, listed as 1% Tolazoline

COC(=O)c1ccccc1O [Methyl Salicylate, Methyl salicylate]
Redness/irritation index, Mean ([1]; 10 min): 0
Redness/irritation index ([1]; 10 min, subject CV): 0
Redness/irritation index ([1]; 10 min, subject four): 0
Redness/irritation index ([1]; 10 min, subject one): 0
Redness/irritation index ([1]; 10 min, subject three): 0
Redness/irritation index ([1]; 10 min, subject two): 0
Redness/irritation index, Mean ([1]; 20 min): 0
Redness/irritation index ([1]; 20 min, subject CV): 0
Redness/irritation index ([1]; 20 min, subject three): 0
Redness/irritation index ([1]; 20 min, subject two): 0
Redness/irritation index, Mean ([1]; 30 min): 0
Redness/irritation index ([1]; 30 min, subject CV): 0
Redness/irritation index ([1]; 30 min, subject three): 0
Redness/irritation index ([1]; 30 min, subject two): 0

c1ccc(CC2=NCCN2)cc1 [Tolazoline]
CHANGE IN HEART RATE, Mean (elevated heart rate [2]; Table VII, mean of runs): 80.64 BPM
DELAY TIME, Mean (elevated heart rate [2]; Table VII, mean of runs): 2.76 min
HALF-LIFE, Mean (elevated heart rate [2]; Table VII, mean of runs): 16.35 min
TIME TO REACH 10% DECLINE IN HEART RATE, Mean (elevated heart rate [2]; Table VII, mean of runs): 6.44 min
TIME TO REACH 20% DECLINE IN HEART RATE, Mean (elevated heart rate [2]; Table VII, mean of runs): 9.83 min
TIME TO REACH 30% DECLINE IN HEART RATE, Mean (elevated heart rate [2]; Table VII, mean of runs): 13.40 min
TIME TO REACH 40% DECLINE IN HEART RATE, Mean (elevated heart rate [2]; Table VII, mean of runs): 18.38 min
TIME TO REACH 50% DECLINE IN HEART RATE, Mean (elevated heart rate [2]; Table VII, mean of runs): 27.16 min
CHANGE IN HEART RATE (elevated heart rate [2]; [4]): 53.00 BPM and 101.93 BPM and 80.67 BPM and 84.26 BPM and 93.54 BPM and 69.23 BPM and 92.75 BPM and 67.50 BPM and 97.31 BPM and 84.22 BPM and 64.17 BPM and 87.58 BPM and 72.15 BPM
DELAY TIME (elevated heart rate [2]; [4]): 2.00 min and 5.28 min and 0.67 min and 1.33 min and 1.77 min and 5.27 min and 1.81 min and 0.39 min and 0.00 min and 0.22 min and 4.43 min and 8.02 min and 4.65 min
TIME TO REACH 10% DECLINE IN HEART RATE (elevated heart rate [2]; [4]): 7.24 min and 9.14 min and 2.56 min and 9.27 min and 4.71 min and 8.58 min and 4.56 min and 4.31 min and 2.17 min and 4.63 min and 6.46 min and 9.64 min and 10.49 min
TIME TO REACH 20% DECLINE IN HEART RATE (elevated heart rate [2]; [4]): 8.85 min and 12.89 min and 4.46 min and 15.49 min and 7.55 min and 12.60 min and 10.28 min and 12.20 min and 4.12 min and 7.66 min and 8.49 min and 11.25 min and 11.90 min
TIME TO REACH 30% DECLINE IN HEART RATE (elevated heart rate [2]; [4]): 10.45 min and 16.35 min and 6.18 min and 20.96 min and 10.17 min and 19.78 min and 19.70 min and 14.89 min and 7.47 min and 11.55 min and 10.55 min and 12.87 min and 13.30 min
TIME TO REACH 40% DECLINE IN HEART RATE (elevated heart rate [2]; [4]): 12.29 min and 19.40 min and 7.61 min and 26.43 min and 14.58 min and 30.11 min and 28.29 min and 17.58 min and 12.20 min and 26.06 min and 12.63 min and 16.89 min and 14.83 min
TIME TO REACH 50% DECLINE IN HEART RATE (elevated heart rate [2]; [4]): 19.86 min and 22.45 min and 9.04 min and 31.33 min and 21.82 min and 35.27 min and 60.00 min and 20.27 min and 19.92 min and 66.00 min and 14.68 min and 20.44 min and 18.05 min
HALF-LIFE (elevated heart rate [2]; heart rate decline, Table VII, single dog run, listed as 1% Tolazoline): 5.75 min and 10.87 min and 20.60 min and 12.81 min and 18.60 min and 18.02 min and 11.30 min
response in screening study (elevated heart rate [2]; two dogs per treatment): most pronounced response
Offset Slope Component (0-5) min (elevated heart rate [3]; listed as 5): -0.90 beats per minute per minute
Offset Slope Component (0-5) min (elevated heart rate [3]; listed as 6): -1.40 beats per minute per minute
Offset Slope Component (5-10) min (elevated heart rate [3]; listed as 5): -3.30 beats per minute per minute
Offset Slope Component (5-10) min (elevated heart rate [3]; listed as 6): -3.90 beats per minute per minute
Percent decline in heart rate, ranking (elevated heart rate [3]; 10-20 minute interval, FIG. 1): greatest percent decline
Offset Slope Component (10-30) min (elevated heart rate [3]; listed as 5): -0.70 beats per minute per minute
Offset Slope Component (10-30) min (elevated heart rate [3]; listed as 6): -0.58 beats per minute per minute
Delay to onset of heart rate decline, ranking (elevated heart rate [3]; FIG. 2): shortest delay
Heart rate decay half-life, ranking (elevated heart rate [3]; FIG. 2): relatively short half-lives
Reduction in heart rate offset (elevated heart rate [3]; FIGS. 3 and 4): dramatic reduction in heart rate offset
Change in Heart Rate (peak minus baseline) (elevated heart rate [3]; listed as 5): 53 bpm
Peak Heart Rate (elevated heart rate [3]; listed as 5): 119 bpm
Change in Heart Rate (peak minus baseline) (elevated heart rate [3]; listed as 6): 33 bpm
Peak Heart Rate (elevated heart rate [3]; listed as 6): 121 bpm
Total time (startup) thru offset plateau: w/in 20 bpm of baseline (elevated heart rate [3]; Table IV): 34 min
Total time (startup) thru offset plateau: reached baseline (elevated heart rate [3]; Table IV, listed as 5): 60 min
Total time (startup) thru offset plateau: reached baseline (elevated heart rate [3]; Table IV, listed as 6): 30 min
Onset Slope (elevated heart rate [3]; listed as 5): 4.70 beats per minute per minute
Onset Slope (elevated heart rate [3]; listed as 6): 3.50 beats per minute per minute
Offset time (elevated heart rate [3]; listed as 5): 34.00 min
Offset time (elevated heart rate [3]; listed as 6): 8.00 min
Offset Slope (elevated heart rate [3]; listed as 5): -1.00 beats per minute per minute
Offset Slope (elevated heart rate [3]; listed as 6): -3.20 beats per minute per minute
Delay (elevated heart rate [3]; listed as 5): 2.00 min
Delay (elevated heart rate [3]; listed as 6): 4.00 min
t 1/2 of elevated heart rate decay (elevated heart rate [3]; Table IV, listed as 5): 14.06 min
t 1/2 of elevated heart rate decay (elevated heart rate [3]; Table IV, listed as 6): 6.77 min
Reduction in offset time (elevated heart rate [3]; iontophoretic pre-delivery): found effective when pre-delivered iontophoretically; also recorded: significant reduction in offset time
Onset time (elevated heart rate [3]; listed as 5): 10.00 min
Onset time (elevated heart rate [3]; listed as 6): 7.00 min
Time Start Decline (elevated heart rate [3]; listed as 5): 20.00 min
Time Start Decline (elevated heart rate [3]; listed as 6): 21.00 min
Dermal clearance enhancement (elevated heart rate [3]; topical pretreatment): no measurable dermal clearance enhancement
